Measurements: a melting point compilation (Tetko et al.; mined from patent text by program, amines drawn as free bases though some values may be those of a salt)

Row | melting point | Compound
1 | 107 to 108 °C | CCOC(=O)c1nc(-c2ccccc2)n(-c2ccc(C(F)(F)F)cc2Cl)n1
2 | 116 to 117 °C | COc1ccc(-c2nc(C(C)=O)cn2-c2ccc(OC)cc2)cc1
3 | 207 to 210 °C | CC(C)(C)c1cc(C=Cc2ccccc2NC(=O)NCc2ccccn2)cc(C(C)(C)C)c1O
4 | 196 to 199 °C | Nc1ccc2c(c1)c(CC(=O)O)cc(=O)n2Cc1ccc(Cl)cc1
5 | 119 to 122 °C | Clc1ccc(-c2cc(Cl)c3ccccc3n2)cc1
6 | 150 to 152 °C | O=C(O)c1cccc(NCCOc2cccc3ccccc23)c1
7 | 120 to 121 °C | CC(C#N)(COc1ccc(Cl)cc1)NS(=O)(=O)Cc1ccccc1 (stereo not given)
8 | 98 to 100 °C | CCOC(=O)N1Cc2ccccc2C(Oc2cccc(C(F)(F)F)c2)C1 (stereo not given)
9 | 145 to 147 °C | CCCCC(=O)Nc1ccc(C(F)(F)F)c(-n2nc(CCCC)n(Cc3ccc(-c4ccccc4S(=O)(=O)NC(=O)c4ccccc4Cl)cc3F)c2=O)c1
10 | 248 to 249 °C | O=C(c1cc2cccc(NS(=O)(=O)c3cccs3)c2[nH]1)N1CCCC1
11 | 109 to 114 °C | COc1cc(OCc2cccnc2)ccc1/C=C/c1cc(/C=C/c2cccc3[nH]ccc23)n[nH]1
12 | 240 °C | Cc1c(C(=O)Nc2ccc(N3CCN(C4CCOCC4)CC3)c(C#N)c2)cnn1-c1ccc(F)cc1
13 | 137 to 138 °C | COc1cc(COc2nn(-c3ccccc3)cc2CC#N)ccc1OCc1nc(-c2ccccc2)oc1C
14 | 184 to 185 °C | COc1cc2c(cc1OC)CN(CCCc1ccc(NC(=O)c3cnc4ccccc4c3)cc1)CC2
15 | 275 to 279 °C | FC(F)(F)c1cccc(Nc2ccccc2-c2n[nH]c(=S)[nH]2)c1
16 | 103 °C | CCCCCCOC(=O)C1=C(C)NN=C(c2ccccc2)C1c1cccc(Cl)c1 (stereo not given)
17 | 177 to 179 °C | Cc1ccc(S(=O)(=O)Nc2ccccc(=O)c2O)cc1
18 | 71 to 75 °C | CC(c1oc2ccccc2c(=O)c1-c1cccc(F)c1)n1ccc2c(Cl)ncnc21 (stereo not given)
19 | 99 to 100 °C | COC(=O)c1ncccc1SCc1ccc(OC)cc1
20 | 198 to 200 °C | Cc1cccc(C(=O)c2[nH]c3cc(Cl)ccc3c2NC(=O)N(C)C)c1

Row | melting point | Compound
21 | 195 to 197 °C | COc1ccc(C(=O)Nc2ccccc2)cc1NC(=S)Nc1cc(Cl)cc(Cl)c1
22 | 130 °C | CCCNC(=O)Nc1ccc(-c2cn3c(n2)C(OC2CCN(C)CC2)c2ccccc2CC3)cc1 (stereo not given)
23 | 103 to 110 °C | O=C(COc1ccc2ccccc2c1)N1CCCN(c2cc(N3CCCC3)nc(N3CCCC3)n2)CC1
24 | > 300 °C | O=C(O)c1[nH]c(=O)c2ccccc2c1-c1ccccc1
25 | 111 to 112 °C | O=c1c2ccccc2sn1SCc1ccccc1
26 | 118 °C | CC(C)c1cccc(C(C)C)c1NC(=O)Nc1ccccc1C(=O)NC1CCN(C(c2ccccc2)c2ccccc2)CC1
27 | 90 to 92 °C | O=C(c1cccs1)c1cnn2c(-c3cccc(NCc4ccccc4)c3)ccnc12
28 | 155 to 158 °C | CS(=O)(=O)OCCCOC(=O)c1[nH]c(-c2ccccc2)c2cc(Cl)ccc12
29 | 125 to 127 °C | CCCc1nc2c(N)nc3cccnc3c2n1CCCCN(OC)C(=O)c1ccccc1
30 | 101 to 103 °C | CC(=O)Oc1nc(-c2ccccc2)sc1-c1ccccc1
31 | 105 to 110 °C | CCOC(=O)c1c(N2CCN(C(=O)c3cccs3)CC2)c2cccnc2n(Cc2ccccc2F)c1=O
32 | 113 to 114 °C | COCCNC(=O)c1cccc(-c2cccc3cc(Cc4cccc(C(F)(F)F)c4)sc23)c1
33 | 202 to 205 °C | CC(C)(C)c1cc2c(c(C(C)(C)C)c1)O[Si](c1ccccc1)(c1ccccc1)Oc1c(cc(C(C)(C)C)cc1C(C)(C)C)S2
34 | 243 to 244 °C | O=C(NCC(F)(F)F)c1cccc(-c2nc(=O)c3ccccc3s2)n1
35 | 158 to 159 °C | FC(F)(F)C(c1ccccc1)(c1ccccc1)c1ccccc1
36 | 221 °C | Cc1ccnc(NC(=O)C2=C(O)c3ccc4ccccc4c3S(=O)(=O)N2C)c1
37 | 107 to 108 °C | O=C(O)c1sc(-c2cccc(Cl)c2)nc1O
38 | 122 to 123 °C | Cc1sc(-c2ccccc2)nc1COc1ccc(COc2ccccc2CC(=O)O)cc1
39 | 172 to 175 °C | COC(=O)C(c1ccc(O)cc1)N1CC(NC(=O)Cc2ccccc2)C1=O (stereo not given)
40 | 235 to 237 °C | CN(C)c1ccc(-n2c(CC(=O)O)c(C(=O)O)c3cc(Oc4ccc(C(F)(F)F)cc4)ccc32)cc1

The next lines start with the compound.

Row | Compound | melting point
41 | COC(=O)CCN(C(=O)CC(O)C(=O)O)N1CCCCC1 (stereo not given) | 54 to 57 °C
42 | CC(C)n1nc(C#C[Si](C)(C)C)ccc1=O | 61 to 62.5 °C
43 | CC(Oc1cc2c(c(Cl)c1Cl)C(=O)C(C)(C1CCCC1)C2)C(=O)O (stereo not given) | 140 to 142 °C
44 | CC1(C2CCCC2)Cc2cc(NCCO)c(Cl)c(Cl)c2C1=O (stereo not given) | 135 to 136 °C
45 | CCCCCCCCSc1ccc(CC(NC(C)=O)(C(=O)OCC)C(=O)OCC)cc1 | 82 to 84 °C
46 | CCOC(=O)Cc1c(C(=O)OCC)c(C)c(C(=O)c2ccc(Cl)cc2)n1C | 91 to 93 °C
47 | COc1ccc2c(c1)c(CC(C)NC(=O)C(F)(F)F)c1n2CCC1 (racemic) | 131 to 133 °C
48 | CC#COc1ccc2oc3ccccc3c(=O)c2c1 | 153 to 154 °C
49 | CCOC(=O)N1CCc2nc3cc(C)ccc3c(C)c2CC1 | 121 °C
50 | O=C(O)c1cccc(OC(F)(F)C(F)(F)F)c1 | 131 to 134 °C
51 | N[C@@H](CC(=O)N1CCn2c(nnc2C(F)(F)F)C1)Cc1cc(F)c(F)cc1F | 118 °C
52 | COC(=O)[C@H](O)[C@@H](N)c1ccccc1 | 101 °C
53 | CN[C@@H]1CCCC[C@H]1NC (relative stereo) | 17 °C
54 | Cc1cc(Cl)c(Nc2ccc(C)cc2CC(=O)O)c(Cl)c1 | 179 to 182 °C
55 | COC(=O)c1ccc(N2CCNCC2)cc1 | 95 to 97 °C
56 | COc1ccccc1-c1cc(F)cc2c1NC(CN)CO2 (stereo not given) | 84 °C
57 | OCc1cnc2n1-c1ccc(Cl)cc1C(c1ccccc1)=NC2 | 210 to 213 °C
58 | CC1(C)Cc2c(c(O)cc3c2C(c2cccc(Br)c2)=NCC3(C)C)O1 | 230 to 235 °C
59 | COc1ccc(C2(CF)CCC(=O)CC2)cc1OC1CCCC1 | 72 to 74 °C
60 | CCOC(=O)C1=C(C)NC(=NC#N)NC1c1cccc([N+](=O)[O-])c1 (stereo not given) | 250 to 252 °C

Row | Compound | melting point
61 | CN1CCC23CC(=O)CCC2(O)C1Cc1ccccc13 (stereo not given) | 143 to 144 °C
62 | COc1ccc(N2CCN(c3ccc(-n4cnn(CC(F)(F)F)c4=O)cc3)CC2)cc1 | 208 °C
63 | CN(CC#Cc1cc(CN2CCOCC2)cc2c(=O)c(C(=O)NCc3ccc(Cl)cc3)cn(C)c12)CCO | 148 to 149 °C
64 | CNS(=O)(=O)CC(N)=O | 104 to 108 °C
65 | CCn1c(=O)c(C#N)c(N)c2ccc(C)nc21 | > 300 °C
66 | CC1(C)CCn2c(nc(-c3ccncc3)cc2=O)N1 | 345 to 347 °C
67 | CCCc1c2cc(C(=O)OCC)oc2cc2c(=O)cc(C(=O)OCC)oc12 | 145 to 147 °C
68 | CCOC(=O)CCc1c[nH]c(-c2cccs2)c1 | 39 to 40 °C
69 | O=C(N[C@@H]1CN(C2CCCCC2)C[C@H]1O)c1ccc([N+](=O)[O-])cc1 (relative stereo) | 156 to 157 °C
70 | COC(=O)c1cc2cc(C(=O)c3ccc(F)cc3)sc2s1 | 220 °C
71 | CC(=O)NC[C@H]1CN(c2ccc(N3CCN(C(=O)CO)CC3)c(F)c2)C(=O)O1 | 87 to 90 °C
72 | COc1ccc(C)cc1NC(=O)Nc1ccc(N2CCN(C(=O)Nc3ccc(C(O)CO)cc3C)CC2)cc1 (stereo not given) | 112 to 113 °C
73 | Cc1nnc(-c2ccc3occ(-c4cnco4)c3c2)o1 | 184 to 185 °C
74 | COCC1OC(n2cnc3c(NC4CCCC4)ncnc32)C(O)C1O (stereo not given) | 164 to 166 °C
75 | CCCCCOc1ccc(-c2ccc(CC[C@H]3CC[C@H](CCC)CC3)c(F)c2F)cc1 | 27 °C
76 | CN1Cc2ccc3c(c2C1)NC(=O)C3=NO | 242 to 244 °C
77 | Cc1ccc(NCC2CCN(C3CCCC3)CC2)c(C(=O)Nc2ccc(Cl)cn2)c1 | 173 to 175 °C
78 | O=S(=O)(NCC1CCN(C[C@H]2COc3ccc(Cl)cc3O2)CC1)c1ccc(Cl)cc1 | 152 to 154 °C
79 | CC(=O)Nc1csc(Br)n1 | 165 °C
80 | C[C@@H](NC(=O)c1c[nH]c2ncc(-c3nn(CCO)c4cc(Cl)ccc34)nc12)C(=O)N1CC(C#N)C1 | 225 to 250 °C

Row | Compound | melting point
81 | Cc1cc(C(c2cc(C)sc2C)c2cc(C)sc2C)c(C)s1 | 143 to 144 °C
82 | CC1(C)Oc2ccsc2C(N2CCCC2=O)C1O (stereo not given) | 154 to 155 °C
83 | CS(=O)(=O)Nc1c(O)ccc2c1CCCC2C1=NCCN1 (stereo not given) | 263 to 265 °C
84 | CCOC(=O)Oc1cc(OC)cc(OC)c1C(=O)C=Cc1ccc(OC)cc1 | 107 °C
85 | COc1cc(C2NC(=O)C(C)S2)cc(OC)c1OC (stereo not given) | 133 to 134 °C
86 | CCOC(=O)C1=C(COCc2nnn(CCN3CCN(C(=O)NC)CC3)n2)NC(C)=C(C(=O)OC)C1c1cccc(Cl)c1Cl (stereo not given) | 112 to 114 °C
87 | Cc1nc(Cl)c2c(c1O)COC2(C)C | 251 °C
88 | COC(=O)c1ccc(OCC(C)NCC(O)c2cccc(Cl)c2)cc1 (stereo not given) | 99 to 101 °C
89 | Cc1ccc2c(c1)C(O)(c1ccccn1)CC(C)(C)CO2 (stereo not given) | 126 °C
90 | CC(C)C(=O)O[C@H](C)[C@@H](C)OC(=O)[C@@H](N)Cc1ccc(O)c(O)c1 | 165 to 166 °C
91 | CN1CCOC2c3cccc4[nH]cc(c34)CC21 (stereo not given) | 175 to 177 °C
92 | COC(=O)C=Cc1ccc(C(C)(C)C)cc1 | 35 °C
93 | CC(C)NC(=O)C1=C(C(=O)Nc2ccc(Cl)cc2F)CCCC1 | 188 to 189 °C
94 | CCCCN1CCCC1=NC(=O)Nc1c(C)cccc1C | 93 to 95 °C
95 | CCc1nnc2n1-c1ccc(I)cc1C(c1ccccc1F)=NC2 | 209 to 211 °C
96 | Oc1ccc2c(c1)CCC(n1cc[nH]c1=S)C2 (stereo not given) | 240 to 241 °C
97 | C#CCOc1ccc2nc(N)c3nc4n(c3c2c1)C(C)COC4 (stereo not given) | 184 to 186 °C
98 | CSCCCCCn1c(C)nc2c(N)nc(C)c(C)c21 | 121 to 122 °C
99 | ON=Cc1ccc(Cl)c(I)c1 | 97 to 99 °C
100 | CCN(CC)CCNC(=O)c1c[nH]c2ccc(I)cc2c1=O | 234 to 236 °C
